# Values quoted from earlier work, collected in publication PMC5601361, “Targeting the Receptor for Advanced Glycation Endproducts (RAGE): A Medicinal Chemistry Perspective” (Journal of Medicinal Chemistry, 2017).
# “Also recorded” adds a separate entry of the source. Read-outs that look alike come from different tables or passages of the source.
# Columns and labels:
# [1] = test system: human RAGE-Aβ1–42; settings: ELISA on human RAGE-Aβ1–42
# [2] = target: human RAGE; set-up: method as in PMID 22742537, PMID 24727489; settings: SPR
# [3] = test system: C6 glioma cells; set-up: method as in PMID 22742537; settings: in vitro; 3 at 10 μM
# [4] = test system: wild-type mice; set-up: method as in PMID 22742537, PMID 24727489; settings: given prior to human Aβ administration, 3 ip, 7 iv 25 mg/kg
# [5] = test system: APPswe/PS1 mice; settings: oral 50 mg/kg per day for up to three months
# [6] = test system: sRAGE
# [7] = target: human sRAGE; set-up: method as in PMID 24824951; settings: V domain; read-out: affinity for RAGE (Kd)
# [8] = target: rat and mouse sRAGE; set-up: method as in PMID 7592757; settings: VC1C2
# [9] = target: human RAGE; set-up: method as in PMID 22493510, PMID 21347371; settings: SPR on human RAGE
# [10] = test system: LLC and B16 melanoma cells; set-up: method as in PMID 22493510, PMID 21347371; settings: single preadministration
# [11] = target: human sRAGE; set-up: method as in PMID 22406537; settings: V domain, read-out: affinity for RAGE (Kd)
# [12] = read-out: IC50, interaction of sRAGE to CML
# [13] = read-out: IC50, interaction of sRAGE to S110B
# [14] = read-out: IC50, interaction of sRAGE to amyloid β
compound,measurement,setting,value
CCN(CC)CCOc1cccc(Nc2nc(-c3ccc(Cl)cc3)cc(-c3ccc(Cl)cc3)n2)c1 [Compound 3],IC50,[1],16.5 µM
same,Kd,[2],102 µM
same,Aβ-induced NF-κB signaling,[3],down-regulation; also recorded: • downregulation of Aβ-induced NF-κB (in vitro)
same,Aβ brain entry / accumulation in the brain,[4]; 25 mg/kg,inhibited Aβ brain entry; also recorded: • inhibition of Aβ accumulation in the brain (in vivo)
same,concentration of toxic soluble Aβ in the brain,[5],significantly lowered
CCN(CC)CCOc1ccccc1Nc1nc(-c2ccc(Cl)cc2)cc(-c2ccc(Cl)cc2)n1 [Compound 4],IC50,[1],4.6 µM
same,Aβ-induced NF-κB signaling,[3],• downregulation of Aβ-induced NF-κB (in vitro)
same,Aβ brain entry / accumulation in the brain,[4],• inhibition of Aβ accumulation in the brain (in vivo)
CCN(CC)CCOc1ccc(OC)cc1NC(=O)c1nc(-c2ccc(F)cc2)cc(-c2ccc(F)cc2)n1 [Compound 6],inhibitory activity compared with another compound,[1]; at 20 μM,superior RAGE inhibition than 3
CCCCOc1cc(OCCCN(CC)CC)ccc1NC(=O)c1cc(-c2ccc(Oc3ccc(F)cc3)cc2)nn1C [Compound 7],Kd,[2],43.4 µM
same,Aβ brain entry / accumulation in the brain,[4],reduce Aβ entry in the brain
CCCCOc1cc(OCCCN(CC)CC)ccc1NC(=O)C(CC1CCN(Cc2ccccc2)CC1)NC(=O)OCC1c2ccccc2-c2ccccc21 (stereo not drawn) [Compound 10],IC50,[6]; [12],< 500 nM
same,IC50,[6]; [13],< 500 nM
same,IC50,[6]; [14],< 500 nM
CCCCn1c([C@@H](Cc2ccc(OCCc3ccc(Cl)cc3)cc2)NC(=O)OC(C)(C)C)nc2cc(OCCCN(CC)CC)ccc21 [Compound 11],IC50,[6]; [12],< 500 nM
same,IC50,[6]; [13],< 500 nM
same,IC50,[6]; [14],< 500 nM
"CC1NC(NCCC[C@H](N)C(=O)O)=NC1=O (stereo partly drawn) [MG-H1, methylglyoxal-derived hydroimidazolone-1]",Kd,[7],40 nM
"HMGB1 (amphoterin): high mobility group box 1, cytokine-type RAGE ligand",affinity for RAGE (Kd),[8],low nanomolar range
same,Kd,[8]; read-out: affinity for RAGE (Kd),6 to 10 nM
chondroitin sulfate E [Compound 15],Kd,[9],0.2 nM
same,lung colonization by tumor cells,[10],suppressed
heparan sulfate [Compound 16],Kd,[9],0.6 nM
same,lung colonization by tumor cells,[10],suppressed
methylglyoxal-derived hydroimidazolones [MG-H],Kd,[7],30 to 40 nM
"β amyloid: β amyloid peptide, RAGE ligand",Kd,[11]; listed as 125I-labeled Aβ1–40,75 nM
same,Kd,[11],70 to 80 nM
